Reference: ChEMBL document CHEMBL5113380, “Functionalized quinoxalinones as privileged structures with broad-ranging pharmacological activities” (Eur J Med Chem, 2022)
Converted amounts (≈) assume the structure as drawn.

Experiments:
HeLa S3 = assay: Cytotoxicity against human HeLa S3 cells; type: functional, cell-based
[1] = target: Glutamate [NMDA] receptor; assay: Displacement of [3H]NMDA from NMDA receptor (unknown origin); type: protein-complex assay, Homo sapiens
[2] = target: Glutamate [NMDA] receptor; assay: Displacement of [3H]L-689560 from NMDA receptor (unknown origin); type: protein-complex assay, Homo sapiens
[3] = Aqueous solubility of the compound; type: physicochemical; details: buffer
Homo sapiens [4] = species on record: Homo sapiens; assay: Ratio IC50 for inhibition of JNK1 (unknown origin) over JNK3 (unknown origin)
Homo sapiens [5] = species on record: Homo sapiens; assay: Ratio IC50 for inhibition of JNK2 (unknown origin) over JNK3 (unknown origin)
[6] = target: T1, Group 10 secretory phospholipase A2 (Homo sapiens, UniProt O15496); assay: Inhibition of human PLA2G10
T1 sequence (O15496 whole entry): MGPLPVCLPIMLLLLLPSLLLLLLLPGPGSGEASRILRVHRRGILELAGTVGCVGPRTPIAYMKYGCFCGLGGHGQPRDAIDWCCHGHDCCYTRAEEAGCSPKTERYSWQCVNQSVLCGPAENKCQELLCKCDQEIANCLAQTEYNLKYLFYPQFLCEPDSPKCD

[7] = target: T2, Group XIIA secretory phospholipase A2 (Homo sapiens, UniProt Q9BZM1); assay: Inhibition of human PLA2G12A
T2 sequence (Q9BZM1 whole entry): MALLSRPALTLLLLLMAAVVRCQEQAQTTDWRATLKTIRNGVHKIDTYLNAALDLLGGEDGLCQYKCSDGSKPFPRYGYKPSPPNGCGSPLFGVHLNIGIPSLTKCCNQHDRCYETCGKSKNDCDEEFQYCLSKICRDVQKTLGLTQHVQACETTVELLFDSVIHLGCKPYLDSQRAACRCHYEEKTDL

[8] = target: T3, Phospholipase A2, membrane associated (Homo sapiens, UniProt P14555); assay: Inhibition of human PLA2G2A
T3 sequence (P14555 whole entry): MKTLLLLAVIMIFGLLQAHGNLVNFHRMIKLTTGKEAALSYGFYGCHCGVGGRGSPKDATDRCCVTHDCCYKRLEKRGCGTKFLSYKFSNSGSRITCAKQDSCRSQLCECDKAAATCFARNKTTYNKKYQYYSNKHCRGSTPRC

[9] = target: Phospholipase A2, major isoenzyme (Sus scrofa, UniProt P00592); assay: Inhibition of porcine PLA2G1B
Phospholipase A2 group V = target: T4, Phospholipase A2 group V (Homo sapiens, UniProt P39877); assay: Inhibition of human PLA2G5
T4 sequence (P39877 whole entry): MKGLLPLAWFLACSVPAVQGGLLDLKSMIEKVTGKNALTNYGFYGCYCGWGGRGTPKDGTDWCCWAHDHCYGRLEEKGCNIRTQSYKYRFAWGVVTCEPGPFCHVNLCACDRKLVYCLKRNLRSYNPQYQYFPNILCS

Alpha amylase = target: T5, Alpha amylase (Homo sapiens, UniProt P0DUB6); assay: Inhibition of alpha-amylase (unknown origin)
T5 sequence (P0DUB6 whole entry): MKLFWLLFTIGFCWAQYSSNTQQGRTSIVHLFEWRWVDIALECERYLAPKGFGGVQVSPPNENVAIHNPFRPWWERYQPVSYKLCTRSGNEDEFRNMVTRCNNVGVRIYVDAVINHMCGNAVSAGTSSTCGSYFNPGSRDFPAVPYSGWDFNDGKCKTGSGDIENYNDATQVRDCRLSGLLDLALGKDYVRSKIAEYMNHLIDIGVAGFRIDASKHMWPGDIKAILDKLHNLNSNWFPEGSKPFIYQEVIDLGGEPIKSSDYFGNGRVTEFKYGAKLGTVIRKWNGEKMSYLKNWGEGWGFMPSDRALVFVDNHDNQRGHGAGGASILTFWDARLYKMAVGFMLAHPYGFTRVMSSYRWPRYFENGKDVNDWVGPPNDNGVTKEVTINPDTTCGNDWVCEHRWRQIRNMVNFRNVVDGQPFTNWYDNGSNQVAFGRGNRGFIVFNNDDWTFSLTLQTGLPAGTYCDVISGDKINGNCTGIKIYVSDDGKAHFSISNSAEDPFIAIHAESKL

HeLa = assay: Antiproliferative activity against human HeLa cells; type: functional, cell-based
HT-29 = assay: Antiproliferative activity against human HT-29 cells; type: functional, cell-based
SMMC-7721 = assay: Antiproliferative activity against human SMMC-7721 cells; type: functional, cell-based
Candida = assay: Antifungal activity against Candida species; type: functional
Staphylococcus aureus = assay: Antibacterial activity against Staphylococcus aureus; type: functional
Pseudomonas aeruginosa = assay: Antibacterial activity against Pseudomonas aeruginosa; type: functional
Escherichia coli = assay: Antibacterial activity against Escherichia coli; type: functional
[10] = Ratio IC50 for cytotoxicity against rat myoblast L6 cells over IC50 for antitrypanosomal activity against Trypanosoma brucei; type: toxicity, cell-based; details: read-out: Ratio IC50
[11] = Cytotoxicity against rat myoblast L6 cells; type: toxicity, cell-based
Trypanosoma brucei = assay: Antitrypanosomal activity against Trypanosoma brucei; type: functional, organism-based
Rattus norvegicus = assay: Antiinflammatory activity in rat model of hind paw edema assessed as paw thickness at 0.9 mg per 100 g of body weight measured after 4 hrs; type: functional
Anopheles sp. [12] = assay: Larvicidal activity against Anopheles at 0.25 ug/ml; type: functional; details: dose 0.25 µg/ml
Anopheles sp. [13] = assay: Larvicidal activity against Anopheles at 0.5 ug/ml; type: functional; details: dose 0.5 µg/ml
Anopheles sp. [14] = assay: Larvicidal activity against Anopheles at 1 ug/ml; type: functional; details: dose 1.0 µg/ml
Anopheles sp. [15] = assay: Larvicidal activity against Anopheles at 0.1 ug/ml; type: functional; details: dose 0.1 µg/ml
[16] = Drug metabolism in human liver microsomes; type: ADME, Microsome; details: read-out: Drug metabolism
[17] = target: Glutamate receptor ionotropic AMPA (Homo sapiens, UniProt P42261+P42262+P42263+P48058); assay: Antagonist activity at AMPA receptor (unknown origin); type: protein-complex assay
[18] = target: Glutamate [NMDA] receptor; assay: Displacement of [3H]DCKA from NMDA receptor (unknown origin); type: protein-complex assay, Homo sapiens
[19] = Displacement of [3H]AMPA from NMDA receptor (unknown origin); type: protein-complex assay, Homo sapiens
[20] = target: Glutamate [NMDA] receptor; assay: Displacement of [3H]kainic acid from NMDA receptor (unknown origin); type: protein-complex assay, Homo sapiens
[21] = target: Glutamate [NMDA] receptor; assay: Displacement of [3H]CGP-39653 from NMDA receptor (unknown origin); type: protein-complex assay, Homo sapiens
[22] = target: Kappa-type opioid receptor (Homo sapiens, UniProt P41145); assay: Antagonist at KOR expressed in human U2OS cells measured by High content imaging based beta-arrestin translocation assay; type: cell-based
Sequence of Kappa-type opioid receptor (P41145 whole entry): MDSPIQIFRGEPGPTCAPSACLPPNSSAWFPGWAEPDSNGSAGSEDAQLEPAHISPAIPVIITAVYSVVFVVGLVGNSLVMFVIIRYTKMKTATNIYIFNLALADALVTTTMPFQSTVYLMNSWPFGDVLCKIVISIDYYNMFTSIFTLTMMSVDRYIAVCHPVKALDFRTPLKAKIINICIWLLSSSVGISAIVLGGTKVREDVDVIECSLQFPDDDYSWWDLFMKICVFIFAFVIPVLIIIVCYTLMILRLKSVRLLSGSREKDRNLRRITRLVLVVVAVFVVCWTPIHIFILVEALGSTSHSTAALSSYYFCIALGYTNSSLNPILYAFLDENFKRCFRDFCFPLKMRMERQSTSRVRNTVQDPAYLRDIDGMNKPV

Sequence of Phospholipase A2, major isoenzyme (P00592 whole entry): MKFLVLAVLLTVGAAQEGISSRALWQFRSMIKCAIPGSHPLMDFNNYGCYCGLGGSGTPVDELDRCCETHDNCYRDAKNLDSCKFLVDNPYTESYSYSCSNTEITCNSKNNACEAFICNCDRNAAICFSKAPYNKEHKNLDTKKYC

Molecule `N#Cc1ccc2c(c1)N1CCCCC1C(=O)N2` (stereo unspecified) has an IC50 (HeLa S3) of 7.6 µM.
`CCC(c1c(Cl)c(Cl)cc2nc(O)c(O)nc12)n1cnnc1` (stereo unspecified) gave an IC50 [1] of 0.09 µM, an IC50 [2] of 0.0026 µM and a solubility [3] of over 5000 µg/mL.
With `N#Cc1ccc2c(c1)N/C(=C\C(=O)c1cccc3ccccc13)C(=O)N2` the Ratio IC50 (Homo sapiens [4]) was over 500 and the Ratio IC50 (Homo sapiens [5]) was over 500.
`O=c1[nH]c2ccccc2n2c(-c3ccc(Cl)c(Cl)c3)ccc12` gave an IC50 [6] of 2.71 µM, an IC50 [7] of 1.41 µM and an IC50 [8] of 1.81 µM. The IC50 [9] was 14.5 µM, the IC50 (Phospholipase A2 group V) was 3.04 µM and the IC50 (Alpha amylase) was 431.81 µM.
`COc1ccc2c(c1)[nH]c(=O)c(=O)n2Cc1cc(OC)c(OC)c(OC)c1` gave an IC50 (HeLa) of 0.693 µM, an IC50 (HT-29) of 1.48 µM and an IC50 (SMMC-7721) of 1.6 µM.
With `O=c1[nH]c2cc3cccnc3c(Cl)c2nc1CBr` the MIC (Candida) was 31.2 µg/mL (≈ 96.3 µM), the MIC (Staphylococcus aureus) was 31.2 µg/mL (≈ 96.3 µM) and the MIC (Pseudomonas aeruginosa) was 31.2 µg/mL (≈ 96.3 µM). It also gave an MIC (Escherichia coli) of 31.2 µg/mL (≈ 96.3 µM).
Work on `CN1CC(=O)N(C)c2cc([N+](=O)[O-])ccc21` yielded a selectivity ratio [10] of 21.6, an IC50 [11] of 78.2 µM and an IC50 (Trypanosoma brucei) of 3.6 µM.
Work on `O=c1[nH]c2ccccc2n2c(-c3ccc([N+](=O)[O-])cc3[N+](=O)[O-])ccc12` yielded an IC50 [6] of 1.05 µM, an IC50 [7] of 2.58 µM and an IC50 [8] of 0.76 µM. It also gave an IC50 [9] of 13.6 µM, an IC50 (Phospholipase A2 group V) of 1.53 µM and an IC50 (Alpha amylase) of 806.19 µM.
Molecule `O=C1Nc2ccccc2N/C1=C\C(=O)c1cccc2ccccc12` has a Ratio IC50 (Homo sapiens [4]) of over 400 and a Ratio IC50 (Homo sapiens [5]) of over 400.
For `O=c1[nH]c2ccccc2n2c(-c3ccc(O)cc3O)ccc12`, the IC50 [6] was 0.61 µM, the IC50 [7] was 0.91 µM and the IC50 [8] was 1.32 µM. The IC50 [9] was 14.8 µM, the IC50 (Phospholipase A2 group V) was 1.05 µM and the IC50 (Alpha amylase) was 1087.43 µM.
For `O=c1[nH]c2ccccc2nc1Cc1nnc(S)n1-c1ccccc1`, the Activity (Rattus norvegicus) was 0.47 mm.
`COc1ccc2nc(-c3ccccc3)c(=O)n(CC#N)c2c1` gave an Activity (Anopheles sp. [12]) of 66.7%, an Activity (Anopheles sp. [13]) of 66.7% and an Activity (Anopheles sp. [14]) of 73.7%. For the same molecule, the Activity (Anopheles sp. [15]) was 60%.
For `O=c1c(-c2cccc([N+](=O)[O-])c2)nc2ccccc2n1Cc1ccccc1`, the metabolised [16] was under 40%.
Work on `Cc1cc2[nH]c(=O)c(=O)n(C[C@H](N)C(=O)O)c2cc1C` yielded an EC50 [17] of 290 µM.
With `CCCn1cnc(Cc2c(Cl)c(Cl)cc3nc(O)c(O)nc23)c1` the IC50 [1] was 0.35 µM, the IC50 [2] was 0.0044 µM and the solubility [3] was over 10000 µg/mL.
Work on `O=C(O)CC1CCc2cc(Br)cc3[nH]c(=O)c(=O)n1c23` (stereo unspecified) yielded a Ki [18] of 0.0099 µM, an IC50 [19] of 4.6 µM and an IC50 [20] of over 30 µM. It also gave an IC50 [21] of over 30 µM.
With `COc1ccc(N2CCN(CCCNC(=O)Cn3c(=O)c4cccn4c4cccnc43)CC2)cc1` the IC50 [22] was 0.173 µM.
